Measurements reported in patent US20210307272A1, “USE OF PLANT GROWTH REGULATORS TO ENHANCE ALGAE GROWTH FOR THE PRODUCTION OF ADDED VALUE PRODUCTS” (priority 2009, published 2021).

Key:
Assay type in all cases: cell-based
Chlorella protothecoides [1] = experiment: Effect of hormone concentrations on growth rate of Chlorella protothecoides, heterotrophic; conditions: 48 hours, control 1.54
Scenedesmus obliquus [2] = experiment: Effect of hormone concentrations on growth rate of Scenedesmus obliquus, photoheterotrophic; conditions: 48 hours, control 0.41
Scenedesmus obliquus [3] = experiment: Effect of hormone concentrations on growth rate of Scenedesmus obliquus, heterotrophic; conditions: 48 hours, control 0.35
Chlorella protothecoides [4] = experiment: Effect of hormone concentrations on growth rate of Chlorella protothecoides, photoheterotrophic; conditions: 48 hours, control 1.05
Protocol: The influence of light exposure during Scenedesmus obliquus and Chlorella protothecoides growth was assessed. The growth rates of both algae were higher in photoheterotrophic growth conditions. The Scenedesmus obliquus growth rate was about 86.7% higher under photoheterotrophic growth. Meanwhile, the Chlorella protothecoides growth rate increased 39.07% when the growth was conducted under photoheterotrophic growth.

[5] = test system: Auxenochlorella protothecoides; experiment: Auxenochlorella protothecoides culture with growth regulator, dry weight and oil after seven days; conditions: 2 mg/L
Protocol: Auxenochlorella protothecoides was grown in Bristol's medium (see above) amended with 0.1% yeast extract (see above) and 0.5% glucose (control cells). Two other groups were cultured in the same medium with either indole acetic acid (2 mg/L, Cat. No. 12886, Sigma-Aldrich Canada Ltd.) or giberellic acid (2 mg/L, Cat. No. G7645, Sigma-Aldrich Canada Ltd.) added. Dry weights were determined and compared between the culture groups after seven days.

Compound | growth rate (Chlorella protothecoides [1]; 0.01 ng) | growth rate (Chlorella protothecoides [1]; 0.1 ng) | growth rate (Chlorella protothecoides [1]; 1 ng) | growth rate (Chlorella protothecoides [1]; 10 ng) | growth rate (Chlorella protothecoides [1]; 100 ng) | growth rate (Scenedesmus obliquus [2]; 0.01 ng) | growth rate (Scenedesmus obliquus [2]; 0.1 ng) | growth rate (Scenedesmus obliquus [2]; 1 ng) | growth rate (Scenedesmus obliquus [2]; 10 ng) | growth rate (Scenedesmus obliquus [2]; 100 ng) | growth rate (Scenedesmus obliquus [3]; 0.01 ng) | growth rate (Scenedesmus obliquus [3]; 0.1 ng) | growth rate (Scenedesmus obliquus [3]; 1 ng) | growth rate (Scenedesmus obliquus [3]; 10 ng) | growth rate (Scenedesmus obliquus [3]; 100 ng) | growth rate (Chlorella protothecoides [4]; 0.01 ng) | growth rate (Chlorella protothecoides [4]; 0.1 ng) | growth rate (Chlorella protothecoides [4]; 1 ng) | growth rate (Chlorella protothecoides [4]; 10 ng) | growth rate (Chlorella protothecoides [4]; 100 ng) | other results
O=C(O)Cc1cccc2ccccc12 [1-Naphthaleneacetic acid] | 1.66 | 1.54 | 1.62 | 1.57 | 1.62 | 0.84 | 0.85 | 0.81 | 0.80 | 0.73 | 0.26 | 0.28 | 0.33 | 0.28 | 0.39 | 1.00 | 1.02 | 1.05 | 1.07 | 1.16 | 
O=C(O)COc1ccc(Cl)cc1Cl [2,4-Dichlorophenoxyacetic, 2,4-dichlorophenoxyacetic acid] | 1.40 | 1.53 | 1.43 | 1.31 | 1.50 | 0.42 | 0.44 | 0.47 | 0.44 | 0.33 | 0.28 | 0.23 | 0.31 | 0.24 | 0.23 | 1.09 | 1.08 | 1.01 | 1.08 | 1.03 | 
c1ccc(CNc2ncnc3nc[nH]c23)cc1 [6-Benzylaminopurine, 6-benzylaminopurine] | 1.48 | 1.54 | 1.50 | 1.52 | 1.46 | 0.46 | 0.37 | 0.47 | 0.47 | 0.52 | 0.28 | 0.32 | 0.39 | 0.36 | 0.33 | 1.00 | 1.12 | 1.07 | 1.04 | 1.08 | 
C=C1C[C@]23C[C@@]1(O)CC[C@H]2[C@@]12C=C[C@H](O)[C@@](C)(C(=O)O1)[C@H]2[C@@H]3C(=O)O [Gibberellic acid] | 1.52 | 1.52 | 1.46 | 1.52 | 1.46 | 0.59 | 0.47 | 0.56 | 0.56 | 0.51 | 0.44 | 0.50 | 0.43 | 0.36 | 0.42 | 1.06 | 1.02 | 1.00 | 1.09 | 1.10 | increase of dry cell mass relative to the control [5]: 20%
O=C(O)Cc1c[nH]c2ccccc12 [Indole-3-acetic acid, indole-3-acetic acid] | 1.62 | 1.61 | 1.49 | 1.60 | 1.60 | 0.42 | 0.47 | 0.49 | 0.49 | 0.62 | 0.23 | 0.36 | 0.42 | 0.47 | 0.41 | 1.06 | 1.05 | 0.97 | 1.13 | 1.02 | increase of dry cell mass relative to the control [5]: 50%; increase of oil production [5]: 15%
c1coc(CNc2ncnc3[nH]cnc23)c1 [Kinetin, kinetin] | 1.60 | 1.50 | 1.44 | 1.60 | 1.58 | 0.57 | 0.73 | 0.92 | 0.37 | 0.36 | 0.28 | 0.26 | 0.36 | 0.31 | 0.28 | 1.08 | 1.10 | 1.02 | 1.18 | 1.19 | 
